Results published in US20130018091A1, “TREATMENT OF ALLODYNIA AND HYPERALGESIA” (priority 2009, published 2013).

How the values were obtained:
[1] = system: Sprague-Dawley rats; conditions: general statement, no dose given; cited from earlier work
[2] = system: Sprague-Dawley rats; assay: Chronic sciatic nerve ligation model in rats (mechanical allodynia, Von Frey); format: in vivo, rat; conditions: 30.0 mg/kg p.o., n=8/group
Text: Following a 10-day post-operative period after partial ligation of the sciatic nerve as described by Seltzer et al, each of the operated Sprague-Dawley rats (obtained from Charles River, Inc.) will be tested for the development of consistent, mechanical allodynia (pain response to a non-noxious stimulus). Animals are placed in a bottomless plexiglass box placed on a stainless steel platform with ¼″ holes. After at least a 30-min conditioning period in which rats are allowed to sit quietly in the cages on the platform, a baseline mechanical sensitivity is determined which represents the pre-drug 50% paw withdrawal threshold. […] The 50% threshold for foot withdrawal is determined by using the “Up and Down” step procedure. […] If the pressure of the largest diameter fiber raises the foot without a withdrawal, it is considered as “no response.” and recorded as >300 g on the data sheet.
Following the measurement of the initial predrug responses, the rats will be given an p.o. injection of tonabersat (n=8 rats per dose level). The mechanical threshold will then be assessed at 1, 2, 4, 6, 8, and 24 hrs post-injection to determine the duration of action of the test compound and the TPE in this model of mechanical allodynia. […]
The withdrawal threshold for each animal determined at each time point is computed using the “xoxox” step procedure originally developed by Dixon (1980). […]

[3] = system: CF1 mouse; assay: Formalin-induced nociception model in mice (hyperalgesia and inflammation); format: in vivo; conditions: 45.0 mg/kg p.o., n=8/group; for Drug-treated AUC (duration of licking): formalin 1 hour after dosing
Experimental: An injection of 0.5% formalin is made into the planter region of a CF1 mouse (obtained from Charles River, Inc.) right hind paw. This elicits a distinct biphasic behavioral profile characterized by the mouse licking the affected paw. Immediately following the injection the mouse licks the paw for about 10 minutes. This is phase 1 (acute) and is followed by a brief latent period where there is little behavioral activity. A more prolonged period of about 20 to 30 minutes of paw licking ensues which constitutes phase 2 (inflammatory).
Prior to the administration of the test drug or vehicle each mouse undergoes a 15-minute conditioning period in one of several 6″ tall plexiglass observation tubes (4″ diameter) that are placed in front of a mirror. Following the conditioning period, doses of tonabersat will be administered p.o. and the mouse returned to its home tube. At a time determined to correlate with peak plasma levels (1 hour), formalin will be injected sub-dermally (20 ul; 27 gauge needle) into the plantar surface of the right hind foot. The bevel of the needle is placed facing down toward the skin surface. Following injection of the formalin each animal is observed for the first 2 minutes of each 5 minute epoch for a total of 45 minutes. The cumulative length of licking for each 2 minute time period is measured. An animal receiving the requisite volume of vehicle is alternated with each mouse given the test drug. Animals are euthanized following the conclusion of the experiment. An n of 8 mice per group will be employed in this study.
Area under the curve (AUC) determination is made using the GraphPad Prism Version 3.03. Total AUC is calculated for both the test and control groups for both the acute and inflammatory phases. The AUC for individual animals for each phase is also calculated and converted to percentage of total AUC of control. The average percentages and SEM for both the drug treated and control are calculated and tested for significant difference.

## NCC1(CC(=O)O)CCCCC1 [gabapentin]
[1]
  Activity in sciatic nerve ligation model: active

## CC(=O)c1ccc2c(c1)[C@H](NC(=O)c1ccc(F)c(Cl)c1)[C@H](O)C(C)(C)O2 [Tonabersat, cis-6-acetyl-4-(S)-(3-chloro-4-fluorobenzoylamino)-3,4-dihydro-2,2-dimethyl-2H-1-benzopyran-3-(S)-ol]
[2]; at time of peak effect 6.0 h, p = <0.05
  % Control (threshold for foot withdrawal relative to predrug mean): 237.0%
[2]; threshold for foot withdrawal
  Time of peak effect: 6.0 h
[3]; Acute Phase, Control AUC 185.8
  Drug-treated AUC (duration of licking): 116.4
[3]; Acute Phase, p = >0.05
  % Inhibition of Control: 37.3%
[3]; Inflammatory Phase, Control AUC 446.7
  Drug-treated AUC (duration of licking): 135.8
[3]; Inflammatory Phase, p = <0.05
  % Inhibition of Control: 69.6%

## CC(C)C[C@H](CN)CC(=O)O [pregabalin]
[1]
  Activity in sciatic nerve ligation model: active
